Results from PubChem BioAssay AID248 (DTP/NCI, 2004).
Where “and” joins values, the source holds several entries; their conditions need not be identical. Equal values may be shown once. Inconclusive results and toxic doses are left out. No stated cut-off is given here; in the data, active means T/C of 150% or more; inactive means T/C below 125%.

Test system: L1210 leukemia ip in BDF1 mice, survival T/C
Test: NCI In Vivo Anticancer Drug Screen. Data for tumor model L1210 Leukemia (intraperitoneal) in B6D2F1 (BDF1) mice
Conditions: endpoint: mean survival time, higher = longer survival
Procedure, shortened: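 Ratio derived from survival: compound-dosed mice over vehicle-dosed mice, all bearing a transplantable tumor.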

[1] = dose: 50.0 mg/kg/injection, schedule: Q01DX001 (ip), vehicle: saline
[2] = dose: 100.0 mg/kg/injection, schedule: Q01DX001 (ip), vehicle: saline
[3] = dose: 200.0 mg/kg/injection, schedule: Q01DX001 (ip), vehicle: saline
[4] = dose: 100.0 mg/kg/injection, schedule: Q04DX003 (ip), vehicle: saline with Tween-80
[5] = dose: 200.0 mg/kg/injection, schedule: Q04DX003 (ip), vehicle: saline with Tween-80
[6] = dose: 400.0 mg/kg/injection, schedule: Q04DX003 (ip), vehicle: saline with Tween-80
[7] = dose: 100.0 mg/kg/injection, schedule: Q01DX009 (ip), vehicle: saline with Tween-80
[8] = dose: 200.0 mg/kg/injection, schedule: Q01DX009 (ip), vehicle: saline with Tween-80

Measured: T/C

CN(C)/C=N\c1ncnc2c1ncn2C1OC(CO)C(O)C1O (stereo unspecified)
inactive: dose: 100.0 mg/kg/injection, schedule: Q04DX002 (ip), vehicle: saline with Tween-80 102 % of control | dose: 200.0 mg/kg/injection, schedule: Q04DX002 (ip), vehicle: saline with Tween-80 98 % of control | dose: 400.0 mg/kg/injection, schedule: Q04DX002 (ip), vehicle: saline with Tween-80 102 % of control

CCCCCCCCCCCCNC(=O)C[N+](C)(C)Cc1ccc2c(c1)CCCC2
inactive: dose: 2.5 mg/kg/injection, schedule: Q01DX009 (ip), vehicle: saline with Tween-80 106 % of control | dose: 5.0 mg/kg/injection, schedule: Q01DX009 (ip), vehicle: saline with Tween-80 94 % of control

N=C(N)SCCON1C(=O)c2ccccc2C1=O
inactive: [1] 102 % of control | [2] 108 % of control | [3] 112 % of control

CC(C)(C)C1CCC(N=C(N)CCl)CC1 (stereo unspecified)
inactive: dose: 6.25 mg/kg/injection, schedule: Q01DX009 (ip), vehicle: Klucel (hydroxypropylcellulose) (HPC) 98 % of control | dose: 12.5 mg/kg/injection, schedule: Q01DX009 (ip), vehicle: Klucel (hydroxypropylcellulose) (HPC) 102 % of control | dose: 12.5 mg/kg/injection, schedule: Q04DX002 (ip), vehicle: Klucel (hydroxypropylcellulose) (HPC) 103 % of control | dose: 25.0 mg/kg/injection, schedule: Q01DX009 (ip), vehicle: Klucel (hydroxypropylcellulose) (HPC) 98 % of control | dose: 25.0 mg/kg/injection, schedule: Q04DX002 (ip), vehicle: Klucel (hydroxypropylcellulose) (HPC) 100 % of control

C[N+](C)(C)c1cc2c(nn1)Nc1ccccc1S2
inactive: [1] 123 % of control | [2] 116 % of control

C/C=C/c1ccc2ccc[n+](C)c2c1O
inactive: dose: 25.0 mg/kg/injection, schedule: Q04DX003 (ip), vehicle: saline 94 % of control | dose: 50.0 mg/kg/injection, schedule: Q01DX001 (ip), vehicle: carboxymethylcellulose (CMC) 103 % of control | dose: 50.0 mg/kg/injection, schedule: Q04DX003 (ip), vehicle: saline 98 % of control | dose: 100.0 mg/kg/injection, schedule: Q01DX001 (ip), vehicle: carboxymethylcellulose (CMC) 95 % of control | dose: 100.0 mg/kg/injection, schedule: Q04DX003 (ip), vehicle: saline 94 % of control

C/C=C/P(=O)(c1ccccc1)c1ccccc1
inactive: [1] 110 % of control | [2] 110 % of control | [3] 95 % of control | dose: 400.0 mg/kg/injection, schedule: Q01DX001 (ip), vehicle: saline 104 % of control

CC(=Nc1ccc(Br)cc1)c1c(O)cc(C)oc1=O
inactive: dose: 100.0 mg/kg/injection, schedule: Q01DX009 (ip), vehicle: Klucel (hydroxypropylcellulose) (HPC) 100 % of control | dose: 200.0 mg/kg/injection, schedule: Q01DX009 (ip), vehicle: Klucel (hydroxypropylcellulose) (HPC) 91 % of control | dose: 400.0 mg/kg/injection, schedule: Q01DX009 (ip), vehicle: Klucel (hydroxypropylcellulose) (HPC) 117 % of control

CC(=O)Nc1ccc(S(=O)(=O)NC(=O)NCCC(C)C)cc1
inactive: [4] 94 % of control | [5] 102 % of control | [6] 102 % of control

O/N=C1\CC(c2ccccc2)(c2ccccc2)c2cc(-c3ccccc3)c(-c3ccccc3)cc21
inactive: dose: 50.0 mg/kg/injection, schedule: Q01DX009 (ip), vehicle: saline with Tween-80 97 % of control | [7] 104 % of control | [8] 97 % of control

CC1=Nc2onc(C)c2N=C(C)C1
inactive: [7] 109 % of control | [4] 100 % of control | [8] 94 % of control | [5] 93 % of control | dose: 400.0 mg/kg/injection, schedule: Q01DX009 (ip), vehicle: saline with Tween-80 96 % of control | [6] 95 % of control

COC(=O)/C=C/CBr
inactive: dose: 0.2 mg/kg/injection, schedule: Q01DX015 (ip), vehicle: carboxymethylcellulose (CMC) 91 % of control | dose: 4.0 mg/kg/injection, schedule: Q01DX015 (ip), vehicle: carboxymethylcellulose (CMC) 109 % of control | dose: 5.0 mg/kg/injection, schedule: Q01DX001 (ip), vehicle: carboxymethylcellulose (CMC) 95 % of control | dose: 8.0 mg/kg/injection, schedule: Q01DX015 (ip), vehicle: carboxymethylcellulose (CMC) 91 % of control | dose: 10.0 mg/kg/injection, schedule: Q01DX001 (ip), vehicle: carboxymethylcellulose (CMC) 93 % of control | dose: 16.0 mg/kg/injection, schedule: Q01DX015 (ip), vehicle: carboxymethylcellulose (CMC) 100 % of control and 102 % of control | dose: 32.0 mg/kg/injection, schedule: Q01DX015 (ip), vehicle: carboxymethylcellulose (CMC) 100 % of control
